Laboratory results published in US20220365069A1, “ATP-BASED CELL SORTING AND HYPERPROLIFERATIVE CANCER STEM CELLS” (LUNELLA BIOTECH, INC., priority 2019, published 2022).

Legend:
ATP-low MCF7 cells = experiment: 3D-mammosphere assay, drug sensitivity of ATP-low MCF7 sub-population; assay type: cell-based, human
From the text: (§1) MCF7 cells in the ATP-high subpopulation show a multi-drug resistance phenotype. The 3D-mammosphere assay was used to explore the differential sensitivity of ATP-high and ATP-low MCF7 cell sub-populations to four different classes of drugs, using as a functional readout of drug-resistance. The drug classes include Tamoxifen, doxycycline, DPI, and Palbociclib.
(§2) Flow Cytometry after Vital Staining with ATP-Red 1: Human breast cancer cell lines were first grown either as a 2D-monolayer or as 3D-spheroids. Then the cells were collected and dissociated into a single-cell suspension, prior to analysis or sorting by flow-cytometry with a SONY SH800 Cell Sorter. Briefly, ATP-high and ATP-low sub-populations of cells were isolated after vital staining with the probe ATP-Red 1. The ATP-high and ATP-low cell sub-populations were selected by gating, within the ATP-Red 1 signal. Unless otherwise stated, cells with the lowest (bottom 5% or 10%) fluorescent signal, or the highest (top 5% or 10%) fluorescent signal, were collected as ATP-low and ATP-high, respectively. The cells outside the gates were discarded during sorting, due to the gate settings. However, such settings are often required to ensure high-purity during sorting. Data were analyzed with FlowJo 10.1 software.
(§3) 3D Anchorage Independent Growth Assay: A single cell suspension was prepared using enzymatic (lx Trypsin-EDTA, Sigma Aldrich, cat. #T3924), and manual disaggregation (25 gauge needle). Five thousand cells were plated with in mammosphere medium (DMEM-F12/B27/20ng/m1 EGF/PenStrep), under non-adherent conditions, in six wells plates coated with 2-hydroxyethylmethacrylate (poly-HEMA, Sigma, cat. #P3932). Cells were grown for 5 days and maintained in a humidified incubator at 37° C. at an atmospheric pressure in 5% (v/v) carbon dioxide/air. After 5 days, 3D spheroids with a diameter greater than 50 μm were counted using a microscope, fitted with a graticule eye-piece, and the percentage of cells which formed spheroids was calculated and normalized to one (1=100% MFE; mammosphere forming efficiency). Mammosphere assays were performed in triplicate and repeated three times independently.

ATP-high MCF7 cells = experiment: 3D-mammosphere assay, drug sensitivity of ATP-high MCF7 sub-population; assay type: cell-based, human
From the text: as §1, §2
as §3, with “Mammosphere assays were performed in triplicate and repeated three times independently.” left out

SMILES: c1ccc2c(c1)[I+]c1ccccc1-2 [DPI, diphenyleneiodonium]
- reduction of 3D-mammosphere formation (ATP-low MCF7 cells; ATP-low cells, 100 nM): > 90%
- reduction of 3D-mammosphere formation (ATP-high MCF7 cells; ATP-high cells, 100 nM): ~55%

SMILES: CC(=O)c1c(C)c2cnc(Nc3ccc(N4CCNCC4)cn3)nc2n(C2CCCC2)c1=O [Palbociclib]
- reduction of 3D-mammosphere formation (ATP-low MCF7 cells; ATP-low cells, 12.5 nM): ~75%
- reduction of 3D spheroid formation (ATP-high MCF7 cells; ATP-high cells, 12.5 nM): -50%

SMILES: CC/C(=C(\c1ccccc1)c1ccc(OCCN(C)C)cc1)c1ccccc1 [Tamoxifen]
- reduction of 3D-mammosphere formation (ATP-low MCF7 cells; ATP-low MCF7 cells (bottom 5%), 1 μM): ~40%
- reduction of 3D-mammosphere formation (ATP-low MCF7 cells; ATP-low MCF7 cells (bottom 5%), 5 μM): > 90%
- 3D-mammosphere formation, of the vehicle-treated control levels (ATP-high MCF7 cells; ATP-high MCF7 cells (top 5%), 5 μM): > 80%
